Measurements: patent US20220119354A1, “DIAMINO-SUBSTITUTED PYRIDINES AND PYRIMIDINES AS HERBICIDES” (FMC Corporation, priority 2019, published 2022)

Columns and labels:
Format in all cases: in vivo
[1] = tested on: foxtail, giant (Setaria faberii); assay: Test A postemergence, giant foxtail; details: 0 to 100 scale
Text: (§1) Seeds of plant species selected from barnyardgrass (Echinochloa crus-galli), kochia (Kochia scoparia), ragweed (common ragweed, Ambrosia elatior), ryegrass, Italian (Lolium multiflorum), foxtail, giant (Setaria faberii), foxtail, green (Setaria viridis), and pigweed (Amaranthus retroflexus) were planted into a blend of loam soil and sand and treated preemergence with a directed soil spray using test chemicals formulated in a non-phytotoxic solvent mixture which included a surfactant.
(§2) At the same time, plants selected from these weed species and also wheat (Triticum aestivum), corn (Zea mays), blackgrass (Alopecurus myosuroides), and galium (catchweed bedstraw, Galium aparine) were planted in pots containing the same blend of loam soil and sand and treated with postemergence applications of test chemicals formulated in the same manner. Plants ranged in height from 2 to 10 cm and were in the one- to two-leaf stage for the postemergence treatment. Treated plants and untreated controls were maintained in a greenhouse for approximately 10 d, after which time all treated plants were compared to untreated controls and visually evaluated for injury. Plant response ratings, summarized in Table A, are based on a 0 to 100 scale where 0 is no effect and 100 is complete control. A dash (-) response means no test result.

kochia (Kochia scoparia) [2] = assay: Test A preemergence, kochia; details: 0 to 100 scale; for Kochia plant response rating: 0 is no effect, 100 is complete control
Text: as §1, §2

[3] = tested on: barnyardgrass (Echinochloa crus-galli); assay: Test A preemergence, barnyardgrass; details: 0 to 100 scale; for Barnyardgrass plant response rating: 0 is no effect, 100 is complete control
Text: as §1, §2

[4] = tested on: ryegrass, Italian (Lolium multiflorum); assay: Test A postemergence, Italian ryegrass; details: 0 to 100 scale
Text: as §1, §2

[5] = tested on: blackgrass (Alopecurus myosuroides); assay: Test A postemergence, blackgrass; details: 0 to 100 scale
Text: as §1, §2

[6] = tested on: barnyardgrass (Echinochloa crus-galli); assay: Test B flooded paddy test, barnyardgrass; details: Flood, 250 g ai/ha, applied to paddy water, 2-leaf stage, visual evaluation after 13 to 15 d
Description: (§3) Plant species in the flooded paddy test selected from rice (Oryza sativa), sedge, umbrella (small-flower umbrella sedge, Cyperus difformis), ducksalad (Heteranthera limosa), and barnyardgrass (Echinochloa crus-galli) were grown to the 2-leaf stage for testing. At the time of treatment, test pots were flooded to 3 cm above the soil surface, treated by application of test compounds directly to the paddy water, and then maintained at that water depth for the duration of the test. Treated plants and controls were maintained in a greenhouse for 13 to 15 d, after which time all species were compared to controls and visually evaluated. Plant response ratings, summarized in Table B, are based on a scale of 0 to 100 where 0 is no effect and 100 is complete control. A dash (-) response means no test result.

[7] = tested on: wheat (Triticum aestivum); assay: Test A postemergence, wheat; details: 0 to 100 scale
Text: as §1, §2

[8] = tested on: ryegrass, Italian (Lolium multiflorum); assay: Test A preemergence, Italian ryegrass; details: 0 to 100 scale; for Ryegrass, Italian plant response rating: 0 is no effect, 100 is complete control
Text: as §1, §2

[9] = tested on: pigweed (Amaranthus retroflexus); assay: Test A postemergence, pigweed; details: 0 to 100 scale
Text: as §1, §2

corn (Zea mays) = assay: Test A postemergence, corn; details: 0 to 100 scale
Text: as §1, §2

[10] = tested on: foxtail, giant (Setaria faberii); assay: Test A preemergence, giant foxtail; details: 0 to 100 scale; for Foxtail, Giant plant response rating: 0 is no effect, 100 is complete control
Text: as §1, §2

[11] = tested on: pigweed (Amaranthus retroflexus); assay: Test A preemergence, pigweed; details: 0 to 100 scale; for Pigweed plant response rating: 0 is no effect, 100 is complete control
Text: as §1, §2

[12] = tested on: sedge, umbrella (small-flower umbrella sedge, Cyperus difformis); assay: Test B flooded paddy test, umbrella sedge; details: Flood, 250 g ai/ha, applied to paddy water, 2-leaf stage, visual evaluation after 13 to 15 d
Description: as §3

rice (Oryza sativa) = assay: Test B flooded paddy test, rice; details: Flood, 250 g ai/ha, applied to paddy water, 2-leaf stage, visual evaluation after 13 to 15 d
Description: as §3

[13] = tested on: ragweed (common ragweed, Ambrosia elatior); assay: Test A preemergence, ragweed; details: 0 to 100 scale, 0 is no effect, 100 is complete control
Text: as §1, §2

[14] = tested on: galium (catchweed bedstraw, Galium aparine); assay: Test A postemergence, galium; details: 0 to 100 scale
Text: as §1, §2

[15] = tested on: ragweed (common ragweed, Ambrosia elatior); assay: Test A postemergence, ragweed; details: 0 to 100 scale
Text: as §1, §2

[16] = tested on: ducksalad (Heteranthera limosa); assay: Test B flooded paddy test, ducksalad; details: Flood, 250 g ai/ha, applied to paddy water, 2-leaf stage, visual evaluation after 13 to 15 d
Description: as §3

kochia (Kochia scoparia) [17] = assay: Test A postemergence, kochia; details: 0 to 100 scale
Text: as §1, §2

[18] = tested on: barnyardgrass (Echinochloa crus-galli); assay: Test A postemergence, barnyardgrass; details: 0 to 100 scale
Text: as §1, §2

[19] = 125 g ai/ha, 0 no effect, 100 complete control
[20] = 500 g ai/ha, 0 no effect, 100 complete control

## Cc1ccc2c([C@H](Nc3ncc(C(F)(F)F)c(N)n3)C3CC3)coc2c1 [Compound 90]
[1]; [19]
  Plant response rating, Foxtail, Giant: 0
[1]; [20]
  Plant response rating, Foxtail, Giant: 50
Kochia (Kochia scoparia) [2]; 125 g ai/ha
  Kochia plant response rating: 0
Kochia (Kochia scoparia) [2]; 500 g ai/ha
  Kochia plant response rating: 90
[3]; 125 g ai/ha
  Barnyardgrass plant response rating: 0
[3]; 500 g ai/ha
  Barnyardgrass plant response rating: 80
[4]; [19]
  Plant response rating, Ryegrass, Italian: 30
[4]; [20]
  Plant response rating, Ryegrass, Italian: 40
[5]; [19]
  Plant response rating, Blackgrass: 0
[5]; [20]
  Plant response rating, Blackgrass: 60
[6]
  Plant response rating, Barnyardgrass (0 to 100 scale, 0 is no effect, 100 is complete control): 40
[7]; [19]
  Plant response rating, Wheat: 0
[7]; [20]
  Plant response rating, Wheat: 30
[8]; 125 g ai/ha
  Ryegrass, Italian plant response rating: 30
[8]; 500 g ai/ha
  Ryegrass, Italian plant response rating: 50
[9]; [19]
  Plant response rating, Pigweed: 60
[9]; [20]
  Plant response rating, Pigweed: 100
Corn (Zea mays); [19]
  Plant response rating, Corn: 0
Corn (Zea mays); [20]
  Plant response rating, Corn: 0
[10]; 125 g ai/ha
  Foxtail, Giant plant response rating: 70
[10]; 500 g ai/ha
  Foxtail, Giant plant response rating: 100
[11]; 125 g ai/ha
  Pigweed plant response rating: 70
[11]; 500 g ai/ha
  Pigweed plant response rating: 100
[12]
  Plant response rating, Sedge, Umbrella (0 to 100 scale, 0 is no effect, 100 is complete control): 20
Rice (Oryza sativa)
  Plant response rating, Rice (0 to 100 scale, 0 is no effect, 100 is complete control): 0
[13]; 125 g ai/ha
  Ragweed plant response rating: 50
[13]; 500 g ai/ha
  Ragweed plant response rating: 100
[14]; [19]
  Plant response rating, Galium: 40
[14]; [20]
  Plant response rating, Galium: 70
[15]; [19]
  Plant response rating, Ragweed: 30
[15]; [20]
  Plant response rating, Ragweed: 70
[16]
  Plant response rating, Ducksalad (0 to 100 scale, 0 is no effect, 100 is complete control): 25
Kochia (Kochia scoparia) [17]; [19]
  Plant response rating, Kochia: 20
Kochia (Kochia scoparia) [17]; [20]
  Plant response rating, Kochia: 90

## C[C@@H](Nc1ncc(C(F)(F)F)c(N)n1)c1cc2cc(F)c(F)cc2o1 [Compounds 30]
[1]; 125 g ai/ha
  Plant response rating, Foxtail, Giant: 0
[1]; 500 g ai/ha
  Plant response rating, Foxtail, Giant: 30
Kochia (Kochia scoparia) [2]; 125 g ai/ha
  Plant response rating, Kochia: 0
Kochia (Kochia scoparia) [2]; 500 g ai/ha
  Plant response rating, Kochia: 30
[3]; 125 g ai/ha
  Plant response rating, Barnyardgrass: 0
[3]; 500 g ai/ha
  Plant response rating, Barnyardgrass: 80
[4]; 125 g ai/ha
  Plant response rating, Ryegrass, Italian: 0
[4]; 500 g ai/ha
  Plant response rating, Ryegrass, Italian: 0
[5]; 125 g ai/ha
  Plant response rating, Blackgrass: 0
[5]; 500 g ai/ha
  Plant response rating, Blackgrass: 0
[6]
  Plant response rating, Barnyardgrass (0 to 100 scale, 0 is no effect, 100 is complete control): 0
[7]; 125 g ai/ha
  Plant response rating, Wheat: 0
[7]; 500 g ai/ha
  Plant response rating, Wheat: 0
[18]; 125 g ai/ha
  Plant response rating, Barnyardgrass: 0
[18]; 500 g ai/ha
  Plant response rating, Barnyardgrass: 30
[8]; 125 g ai/ha
  Plant response rating, Ryegrass, Italian: 0
[8]; 500 g ai/ha
  Plant response rating, Ryegrass, Italian: 0
[9]; 125 g ai/ha
  Plant response rating, Pigweed: 100
[9]; 500 g ai/ha
  Plant response rating, Pigweed: 100
Corn (Zea mays); 125 g ai/ha
  Plant response rating, Corn: 10
Corn (Zea mays); 500 g ai/ha
  Plant response rating, Corn: 0
[10]; 125 g ai/ha
  Plant response rating, Foxtail, Giant: 0
[10]; 500 g ai/ha
  Plant response rating, Foxtail, Giant: 70
[11]; 125 g ai/ha
  Plant response rating, Pigweed: 40
[11]; 500 g ai/ha
  Plant response rating, Pigweed: 100
[12]
  Plant response rating, Sedge, Umbrella (0 to 100 scale, 0 is no effect, 100 is complete control): 80
Rice (Oryza sativa)
  Plant response rating, Rice (0 to 100 scale, 0 is no effect, 100 is complete control): 0
[14]; 125 g ai/ha
  Plant response rating, Galium: 50
[14]; 500 g ai/ha
  Plant response rating, Galium: 60
[15]; 125 g ai/ha
  Plant response rating, Ragweed: 20
[15]; 500 g ai/ha
  Plant response rating, Ragweed: 80
[16]
  Plant response rating, Ducksalad (0 to 100 scale, 0 is no effect, 100 is complete control): 0
Kochia (Kochia scoparia) [17]; 125 g ai/ha
  Plant response rating, Kochia: 20
Kochia (Kochia scoparia) [17]; 500 g ai/ha
  Plant response rating, Kochia: 80
